Marks after values point to notes of the source that are not given here.
Tests used:
Assay type in all cases: cell-based
[1] = system: NF-κB; assay: TNF-α-induced NF-κB-dependent luciferase expression in HEK cells; parameters: NF-κB % inhibition: concentration or dose not given beside the values; settings: TNF-α-induced; compound added 1 h before inducer, luciferase 24 h later; normalized to DMSO vehicle
[2] = system: AP-1; assay: PMA-induced AP-1 luciferase expression in HEK cells; settings: PMA-induced; compound added 1 h before inducer, luciferase 24 h later; normalized to DMSO vehicle
[3] = system: vascular smooth muscle cells (VSMC); assay: LDH release cytotoxicity in VSMC; settings: VSMC, 10 μM, 48 h, relative to vehicle
Description: (§1) Additional compounds have also been tested for their ability to inhibit both TNF-α-induced NF-κB—expression and PMA-induced AP-1 expression. In both tests, the compound was added for 1 h, then the appropriate inducer was added, and luciferase activity was monitored 24 h later. Values were then normalized to the vehicle control, DMSO. Following the initial luciferase screens, studies were conducted to assess the cytotoxicity of the compounds in normal cells such as VSMC, HUVEC, or HPT cells. Human umbilical vein endothelial cells (HUVEC) represent the normal endothelium, vascular smooth muscle cells (VSMC) were represented by cells from the adult rat aorta, and human proximal tubule (HPT) cells represent the normal proximal tubule in vivo. These cells were grown to near confluency in multi-well plates, and were then treated for 48 h with either vehicle (0.1% DMSO) or 10 μM of each drug candidate. Following treatment, the media from the VSMC and HUVEC incubations were removed, and the amount of lactate dehydrogenase (LDH) released into the medium was determined with a commercial kit. LDH is normally confined to the cytosol, and its release represents “leakiness” of the plasma membrane. LDH activity was expressed as % increase over vehicle-treated cells. In another assay of viability, the treated VSMC and HUVEC were removed by trypsinization and treated with trypan blue, a dye that is taken up only by dead cells. The number of both live and dead cells was counted using an automated cell viability analyzer. The % decrease in numbers of viable cells was determined. Toxicity in the treated HPT cells was determined by the ethidium homodimer (EthHD) uptake assay. EthHD is a fluorescent dye that is excluded from live cells, but is taken up by cells that have lost permeability barriers. Inside the cell, EthHD produces a strong fluorescent signal, which is proportional to the number of dead cells. Results were expressed as a % increase in cell death over vehicle-treated cells. The lead compounds were also tested in two pairs of cell lines from either the skin or prostate, one tumorigenic and one non-tumorigenic, to test for any differences in toxicity or heightened sensitivity in the tumorigenic lines. The cells were treated for 48 h with vehicle (0.1% DMSO) or 10 μM of each drug candidate. Following treatment, the viability of the cells was determined by the MTT assay. In this assay, the MTT dye is converted only in viable cells by intracellular enzymes to a colorimetric product that is quantitated by a microplate reader.
(§2) For the results in Table 13, cells were grown to near confluency in multi-well plates, then treated for 48 h with either vehicle (0.1% DMSO) or 10 μM of each drug candidate. Following treatment, the media from the VSMC and HUVEC incubations were removed, and the amount of lactate dehydrogenase (LDH) released into the medium was determined with a commercial kit and expressed as a % increase over vehicle-treated cells. HPT toxicity was determined by the ethidium homodimer (EthHD) uptake assay. Inside the cell, EthHD produces a strong fluorescent signal, which is proportional to the amount of cell death, expressed as a % increase in cell death over vehicle-treated cells. The lead compounds were also tested in two pairs of cell lines from the skin or prostate, one tumorigenic and one non-tumorigenic, to test for differing toxicity or heightened sensitivity in the tumorigenic lines. The cells were treated for 48 h with vehicle (0.1% DMSO) or 10 μM of each drug candidate, and the viability of the cells was determined by the MTT assay, expressed as a % decrease in viability compared to vehicle-treated cells. The in vivo inflammation model measured the % inhibition of rat paw edema induced by carageenan injection.

[4] = system: Human umbilical vein endothelial cells (HUVEC); assay: LDH release cytotoxicity in HUVEC; settings: HUVEC, 10 μM, 48 h, relative to vehicle
Description: as §1, §2

[5] = system: vascular smooth muscle cells (VSMC); assay: Trypan blue viability count in VSMC; settings: VSMC, 10 μM, 48 h, relative to vehicle
Description: as §1

[6] = system: Human umbilical vein endothelial cells (HUVEC); assay: Trypan blue viability count in HUVEC; settings: HUVEC, 10 μM, 48 h, relative to vehicle
Description: as §1

[7] = system: human proximal tubule (HPT) cells; assay: Ethidium homodimer (EthHD) uptake toxicity assay in HPT cells; settings: 10 μM, 48 h, relative to vehicle
Description: as §1, §2

[8] = system: cell lines from the skin, one tumorigenic and one non-tumorigenic; assay: MTT viability in skin cell line pair, tumorigenic and non-tumorigenic
Description: as §1, §2

Structure (SMILES) | NF-κB % inhibition [1] | AP-1 % inhibition [2] | LDH release % Increase VSMC [3] | LDH release % Increase HUVEC [4] | Viable Cells % Decrease VSMC [5] | Viable Cells % Decrease HUVEC [6] | Cell Death (EthHD) % Increase HPT [7] | Viability (MTT) % Decrease HaCaT [8] | Viability (MTT) % Decrease SRB12-p9 [8]
O=c1c2ccccc2nc(-c2cc(-c3ccncc3)c(N3CCOCC3)s2)n1-c1ccc(Cl)cc1 [PMCR236] | 68** % | 32% | 91# % | 39# % | 94# % | 60# % | 172# % | 6% | 19%
Cc1ccccc1-n1c(-c2sc(Nc3ccccc3)nc2C)nc2ccccc2c1=O [PMCR20] | 21% | 73** % | 9% | 17% | 34# % | 28# % | 109# % | 6% | 14%
Cc1cccc(-n2c(-c3sc(NC(=O)c4ccccc4)nc3-c3ccccc3)nc3ccccc3c2=O)c1 [PMCR45] | 42% | 63** % | 116# % | 123# % | 67# % | 41# % | 49# % | 19% | 20%
CNc1nc(C)c(-c2nc3ccccc3c(=O)n2-c2ccccc2C)s1 [PMCR19] | 18% | 67** % | 4% | 14% | 29# % | 20% | 63# % | 6% | 21%
Cc1nc(Nc2ccc(Cl)cc2)sc1-c1nc2ccccc2c(=O)n1-c1ccccc1Cl [PMCR120] | 60** % | 27% | 11% | 6% | 13% | 16% | 17% | −4% | 85# %
CNc1nc(-c2ccccc2)c(-c2nc3ccccc3c(=O)n2-c2ccccc2OC)s1 [PMCR75] | 61** % | 90** % | 31# % | 15% | 70# % | 41# % | 4% | 46# % | 61# %
COc1ccccc1-n1c(-c2cc(-c3ccncc3)c(N3CCOCC3)s2)nc2ccccc2c1=O [PMCR206] | 31% | 33% | 0% | −1% | 0% | 12% | 147# % | 11% | 30# %
CCOC(=O)Nc1nc(-c2ccccc2)c(-c2nc3ccccc3c(=O)n2-c2ccccc2C)s1 [PMCR25] | 23% | 52** % | 78# % | 59# % | 56# % | 40# % | 34# % | −5% | 28# %
Cc1ccccc1-n1c(-c2cc(-c3ccncc3)c(N3CCOCC3)s2)nc2ccccc2c1=O [PMCR188] | 53% | 0% | 148# % | 160# % | 92# % | 60# % | 250# % | 0% | 0%
O=c1c2ccccc2nc(-c2cc(-c3ccncc3)c(N3CCOCC3)s2)n1-c1ccccc1Cl [PMCR224] | 80** % | 45% | 18% | 28# % | 63# % | 43# % | 266# % | −4% | 13%
CC(=O)c1ccc(-n2c(-c3cc(-c4ccncc4)c(N4CCOCC4)s3)nc3ccccc3c2=O)cc1 [PMCR242] | 66** % | 84** % | 68# % | 61# % | 90# % | 60# % | 50# % | −28% | 14%
COc1ccccc1-n1c(-c2cc(-c3ccc(S(C)(=O)=O)cc3)c(N3CCOCC3)s2)nc2ccccc2c1=O [PMCR204] | 55** % | 33% | 164# % | 214# % | 70# % | 65# % | 207# % | −8% | 12%
COC(=O)Nc1nc(-c2ccccc2)c(-c2nc3ccccc3c(=O)n2-c2ccccc2Cl)s1 [PMCR122] | 55** % | 66** % | 20% | 37# % | 45# % | 32# % | 210# % | 6% | 11%
